Measurements as given in ChEMBL document CHEMBL3525930 (Drug Metab Dispos, 2012).
Values belong to the compound of their own block, whether it stands above or below them.

Legend:
Hepatocyte [1] = assay: Cytotoxicity against human hepatocytes assessed as cell viability relative to control; assay type: cell-based
[2] = Chemical stability of the compound in human hepatocyte culture medium assessed as compound remaining at 1 to 50 uM after 24 hrs; assay type: physicochemical; conditions: read-out: Stability
[3] = biological target: Nuclear receptor subfamily 1 group I member 2 (Homo sapiens, UniProt O75469); assay: Activation of human PXR expressed in human LS174T cells; assay type: ADME, cell-based
[4] = Total Cmax in human; assay type: ADME, organism-based; conditions: in vivo
[5] = Chemical stability of the compound in PBS buffer assessed as compound remaining at pH 7.4 after 10 mins; assay type: physicochemical; conditions: read-out: Stability
Homo sapiens = organism: Homo sapiens; assay: Unbound Cmax in human; assay type: ADME, organism-based; conditions: in vivo
Cytochrome P450 3A4 [6] = biological target: T1, Cytochrome P450 3A4 (Homo sapiens, UniProt P08684); assay: Inhibition of CYP3A4 in human liver microsomes incubated for 3 mins prior to NADPH addition measured after 3 mins by LC-MS analysis; assay type: ADME
UGT2B7 = assay: Induction of UGT2B7 mRNA expression in human hepatocytes at 10 uM after 72 hrs by RT-PCR analysis relative to vehicle-treated control; assay type: ADME, cell-based, Hepatocyte; conditions: read-out: FC
CYP2C9 [7] = biological target: CYP2C9 (Homo sapiens, UniProt P11712); assay: Induction of CYP2C9 in human hepatocytes at 10 uM after 72 hrs relative to vehicle-treated control; assay type: ADME, cell-based, Hepatocyte; conditions: read-out: FC
CYP2D6 = assay: Induction of CYP2D6 mRNA expression in human hepatocytes at 10 uM after 72 hrs by RT-PCR analysis relative to vehicle-treated control; assay type: ADME, cell-based, Hepatocyte; conditions: read-out: FC
Cytochrome P450 3A4 [8] = biological target: T1, Cytochrome P450 3A4; assay: Inhibition of recombinant CYP3A4 (unknown origin) incubated for 3 mins prior to NADPH addition measured after 3 mins by LC-MS analysis; assay type: ADME
Cytochrome P450 3A4 [9] = biological target: T1, Cytochrome P450 3A4; assay: (§1) Induction of CYP3A4 in human hepatocytes at 10 uM after 72 hrs relative to vehicle-treated control; conditions: 72 h, 10 µM
CYP3A4 [10] = biological target: CYP3A4 (Homo sapiens, UniProt P08684); assay: as §1
MRP2 = assay: Induction of MRP2 mRNA expression in human hepatocytes at 10 uM after 72 hrs by RT-PCR analysis relative to vehicle-treated control; assay type: cell-based, Hepatocyte; conditions: read-out: FC
CYP3A5 = assay: Induction of CYP3A5 mRNA expression in human hepatocytes at 10 uM after 72 hrs by RT-PCR analysis relative to vehicle-treated control
CYP3A4 [11] = assay: (§2) Induction of CYP3A4 mRNA expression in human hepatocytes at 10 uM after 72 hrs by RT-PCR analysis relative to vehicle-treated control
Hepatocyte [12] = assay: as §2; conditions: 72 h, 10 µM
CYP2C9 [13] = assay: Induction of CYP2C9 mRNA expression in human hepatocytes at 10 uM after 72 hrs by RT-PCR analysis relative to vehicle-treated control; assay type: ADME, cell-based, Hepatocyte; conditions: read-out: FC
Cytochrome P450 2B6 [14] = biological target: T2, Cytochrome P450 2B6 (Homo sapiens, UniProt P20813); assay: Inhibition of CYP2B6 in human liver microsomes incubated for 3 mins prior to NADPH addition measured after 10 mins by LC-MS analysis; assay type: ADME
T2 sequence (P20813 whole entry): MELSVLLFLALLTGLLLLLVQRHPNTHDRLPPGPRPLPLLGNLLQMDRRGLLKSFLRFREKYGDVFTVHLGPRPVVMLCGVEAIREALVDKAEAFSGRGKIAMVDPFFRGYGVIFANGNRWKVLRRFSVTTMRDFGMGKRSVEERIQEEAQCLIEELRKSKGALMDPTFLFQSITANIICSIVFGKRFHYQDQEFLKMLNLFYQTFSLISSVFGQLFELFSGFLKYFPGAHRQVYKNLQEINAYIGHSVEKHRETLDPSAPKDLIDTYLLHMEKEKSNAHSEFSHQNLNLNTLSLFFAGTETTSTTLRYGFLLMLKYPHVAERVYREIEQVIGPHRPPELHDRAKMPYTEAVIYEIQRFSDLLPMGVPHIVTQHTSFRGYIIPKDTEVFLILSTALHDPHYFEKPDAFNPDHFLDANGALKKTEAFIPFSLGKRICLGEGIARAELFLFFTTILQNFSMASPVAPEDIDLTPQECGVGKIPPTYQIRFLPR

CYP2A6 = assay: Induction of CYP2A6 mRNA expression in human hepatocytes at 10 uM after 72 hrs by RT-PCR analysis relative to vehicle-treated control; assay type: ADME, cell-based, Hepatocyte; conditions: read-out: FC
CYP2C8 = assay: Induction of CYP2C8 mRNA expression in human hepatocytes at 10 uM after 72 hrs by RT-PCR analysis relative to vehicle-treated control; assay type: ADME, cell-based, Hepatocyte; conditions: read-out: FC
MRP1 = assay: Induction of MRP1 mRNA expression in human hepatocytes at 10 uM after 72 hrs by RT-PCR analysis relative to vehicle-treated control; assay type: cell-based, Hepatocyte; conditions: read-out: FC
UGT1A9 = assay: Induction of UGT1A9 mRNA expression in human hepatocytes at 10 uM after 72 hrs by RT-PCR analysis relative to vehicle-treated control; assay type: ADME, cell-based, Hepatocyte; conditions: read-out: FC
CYP2B6 [15] = assay: (§3) Induction of CYP2B6 mRNA expression in human hepatocytes at 10 uM after 72 hrs by RT-PCR analysis relative to vehicle-treated control; assay type: ADME, cell-based, Hepatocyte; conditions: read-out: FC
Hepatocyte [16] = assay: as §3; assay type: ADME, cell-based; conditions: 72 h, 10 µM
Cytochrome P450 2B6 [17] = biological target: T2, Cytochrome P450 2B6; assay: Inhibition of recombinant CYP2B6 (unknown origin) incubated for 3 mins prior to NADPH addition measured after 10 mins by LC-MS analysis; assay type: ADME
CYP2C19 = assay: Induction of CYP2C19 mRNA expression in human hepatocytes at 10 uM after 72 hrs by RT-PCR analysis relative to vehicle-treated control; assay type: ADME, cell-based, Hepatocyte; conditions: read-out: FC
CYP1A2 = assay: Induction of CYP1A2 mRNA expression in human hepatocytes at 10 uM after 72 hrs by RT-PCR analysis relative to vehicle-treated control; assay type: ADME, cell-based, Hepatocyte; conditions: read-out: FC
MDR1 = assay: Induction of MDR1 mRNA expression in human hepatocytes at 10 uM after 72 hrs by RT-PCR analysis relative to vehicle-treated control; assay type: ADME, cell-based, Hepatocyte; conditions: read-out: FC
CYP2E1 = assay: Induction of CYP2E1 mRNA expression in human hepatocytes at 10 uM after 72 hrs by RT-PCR analysis relative to vehicle-treated control; assay type: ADME, cell-based, Hepatocyte; conditions: read-out: FC
Cytochrome P450 2B6 [18] = biological target: T2, Cytochrome P450 2B6; assay: (§4) Induction of CYP2B6 in human hepatocytes at 10 uM after 72 hrs relative to vehicle-treated control; assay type: ADME, cell-based, Hepatocyte; conditions: 72 h, 10 µM
CYP2B6 [19] = biological target: CYP2B6 (Homo sapiens, UniProt P20813); assay: as §4; assay type: ADME, cell-based, Hepatocyte; conditions: read-out: FC

T1 sequence (P08684 whole entry): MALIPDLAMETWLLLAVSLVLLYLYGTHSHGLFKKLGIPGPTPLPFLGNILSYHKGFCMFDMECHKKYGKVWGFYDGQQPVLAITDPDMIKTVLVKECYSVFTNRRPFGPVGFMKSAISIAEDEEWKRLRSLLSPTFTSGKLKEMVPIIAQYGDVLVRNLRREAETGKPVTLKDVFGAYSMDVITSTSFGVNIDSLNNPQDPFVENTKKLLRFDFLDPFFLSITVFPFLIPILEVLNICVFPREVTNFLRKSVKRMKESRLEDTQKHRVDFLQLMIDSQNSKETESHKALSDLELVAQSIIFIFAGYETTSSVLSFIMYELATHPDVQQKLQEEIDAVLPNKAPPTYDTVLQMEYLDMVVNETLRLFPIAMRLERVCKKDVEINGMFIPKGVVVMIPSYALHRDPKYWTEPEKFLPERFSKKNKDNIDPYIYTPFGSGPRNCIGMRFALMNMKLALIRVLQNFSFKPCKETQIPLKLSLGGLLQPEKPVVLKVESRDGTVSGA
Sequence of CYP2C9 (Homo sapiens, UniProt P11712) (P11712 whole entry): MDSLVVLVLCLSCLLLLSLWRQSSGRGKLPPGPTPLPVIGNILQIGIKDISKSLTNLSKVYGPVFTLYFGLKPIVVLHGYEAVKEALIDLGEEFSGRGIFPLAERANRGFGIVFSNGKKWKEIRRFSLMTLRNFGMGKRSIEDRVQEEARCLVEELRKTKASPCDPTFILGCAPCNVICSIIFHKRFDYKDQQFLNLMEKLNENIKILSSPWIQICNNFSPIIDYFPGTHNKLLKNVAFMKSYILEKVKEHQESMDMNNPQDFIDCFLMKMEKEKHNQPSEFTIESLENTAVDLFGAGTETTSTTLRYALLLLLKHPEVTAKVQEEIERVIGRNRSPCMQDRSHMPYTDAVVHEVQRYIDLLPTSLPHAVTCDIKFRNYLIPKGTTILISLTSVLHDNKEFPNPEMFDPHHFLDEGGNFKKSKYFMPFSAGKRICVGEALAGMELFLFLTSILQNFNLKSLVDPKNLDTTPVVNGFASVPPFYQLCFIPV
Sequence of CYP3A4 (Homo sapiens, UniProt P08684) (P08684 whole entry): as the sequence (P08684 whole entry) above
Sequence of Nuclear receptor subfamily 1 group I member 2 (O75469 whole entry): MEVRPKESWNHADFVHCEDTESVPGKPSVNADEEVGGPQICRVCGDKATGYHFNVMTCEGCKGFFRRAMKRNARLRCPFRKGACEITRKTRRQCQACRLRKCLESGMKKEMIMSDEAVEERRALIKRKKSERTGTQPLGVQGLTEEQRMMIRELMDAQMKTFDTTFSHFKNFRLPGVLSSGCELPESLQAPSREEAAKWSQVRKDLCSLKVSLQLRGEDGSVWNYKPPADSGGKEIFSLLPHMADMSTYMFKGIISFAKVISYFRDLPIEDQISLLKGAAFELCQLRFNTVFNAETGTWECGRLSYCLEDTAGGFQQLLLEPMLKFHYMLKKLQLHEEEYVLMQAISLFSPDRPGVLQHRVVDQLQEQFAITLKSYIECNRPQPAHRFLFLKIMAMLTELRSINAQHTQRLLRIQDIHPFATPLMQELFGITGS

Compound: C[C@@H]1CC[C@H]2[C@@H](C)C(=O)O[C@@H]3O[C@@]4(C)CC[C@@H]1[C@]32OO4 [ARTEMISININ]
- Activity (Hepatocyte [1]): < 50 µM
- remaining at 24 h, up to 50 µM [2]: 38%
- EC50 [3]: 30 µM
- Cmax [4]: 1600 nM
- remaining at 10 min [5]: < 15%
- fCmax (Homo sapiens): 0.58 µM

- IC50 (Cytochrome P450 3A4 [6]): > 125 µM
- remaining at 24 h, up to 50 µM [2]: 8%
- fold induction at 72 h, 10 µM (UGT2B7): 0.7
- fold induction at 72 h, 10 µM (CYP2C9 [7]): 1.2
- fold induction at 72 h, 10 µM (CYP2D6): 0.7
- IC50 (Cytochrome P450 3A4 [8]): > 125 µM
- Activity (Cytochrome P450 3A4 [9]): 5.2%
- fold induction at 72 h, 10 µM (CYP3A4 [10]): 2.1
- fold induction at 72 h, 10 µM (MRP2): 0.8
- fold induction at 72 h, 10 µM (CYP3A5): 1
- fold induction at 72 h, 10 µM (CYP3A4 [11]): 3.4
- Activity (Hepatocyte [12]): 7.7%
- fold induction at 72 h, 10 µM (CYP2C9 [13]): 1
- IC50 (Cytochrome P450 2B6 [14]): > 125 µM
- fold induction at 72 h, 10 µM (CYP2A6): 2.2
- fold induction at 72 h, 10 µM (CYP2C8): 0.8
- fold induction at 72 h, 10 µM (MRP1): 0.8
- fold induction at 72 h, 10 µM (UGT1A9): 1.4
- fold induction at 72 h, 10 µM (CYP2B6 [15]): 3.5
- Activity (Hepatocyte [16]): 13.9%
- IC50 (Cytochrome P450 2B6 [17]): > 125 µM
- fold induction at 72 h, 10 µM (CYP2C19): 1.3
- fold induction at 72 h, 10 µM (CYP1A2): 1.1
- fold induction at 72 h, 10 µM (MDR1): 1
- fold induction at 72 h, 10 µM (CYP2E1): 0.6
- Activity (Cytochrome P450 2B6 [18]): 11.3%
- fold induction at 72 h, 10 µM (CYP2B6 [19]): 2.9
Compound: C[C@H]1[C@@H](O)O[C@@H]2O[C@@]3(C)CC[C@H]4[C@H](C)CC[C@@H]1[C@@]24OO3 [ARTENIMOL]
- Activity (Hepatocyte [1]): 50 µM

Compound: CO[C@H]1/C=C/O[C@@]2(C)Oc3c(C)c(O)c4c(O)c(c(/C=N/N5CCN(C)CC5)c(O)c4c3C2=O)NC(=O)/C(C)=C\C=C\[C@H](C)[C@H](O)[C@@H](C)[C@@H](O)[C@@H](C)[C@H](OC(C)=O)[C@@H]1C [RIFAMPIN]
- Activity (Hepatocyte [1]): < 50 µM
